Several values for one entry are separate records, joined by “and”; a condition that tells them apart may be missing. Identical values can stand only once.
target: T1, LAPTc (acidic M17 leucyl-aminopeptidase from T. cruzi) (Trypanosoma cruzi, UniProt V5BWE3); experiment: High-throughput single point screening for LAPTc inhibitors by RapidFire-MS; type: biochemical; details: primary screen, 30 μM, single replicate; read-out: Percent Inhibition
Description: (§1) This assay was previously described. The assay was performed in 384-well clear F-bottom polypropylene plates with a final reaction volume of 15 μL. The reaction mixture contained 7.5 μL LAPTc in 50 mM Tris-HCl, pH 7.5, 0.005% NP-40 and 7.5 μL LSTVIVR peptide substrate (Cambridge Research Biochemicals, Billingham, UK) in the same buffer was added to start the reaction. The reaction was performed at room temperature for 40 min and then stopped with 85 μL 1% formic acid containing 0.15 mg/mL STVIVR* internal standard (Cambridge Research Biochemicals, Billingham, UK).
Single point screening of a library of 3329 compounds was performed in 384-well clear plates (Greiner 781101) at room temperature. Test compounds (45 nL in DMSO) were transferred to assay plates by an ECHO 550 acoustic dispenser (Labcyte). LAPTc was tested at 3 nM with 150 μM (approximately the value of the apparent Michaelis-Menten constant -appKM- [16]) LSTVIVR peptide substrate in a 40 min reaction. Before addition of substrate, LAPTc was preincubated with 45 nL compounds or DMSO for 15 min. Compounds, dissolved in DMSO, were tested at 30 μM. Controls without compound (the same volume of DMSO, 0% inhibitory effect) and without enzyme and compound (100% inhibitory effect) were prepared. The experiment was performed without replicates. The remaining experimental conditions were maintained as previously described. Data were processed and analysed through ActivityBase XE (IDBS). The selection criterion for hits in this single point screen was percent inhibition larger than the mean plus three standard deviations. All primary screening data are available in ChEMBL (see Data Availability statement).

T1 sequence (V5BWE3 entry or part of it): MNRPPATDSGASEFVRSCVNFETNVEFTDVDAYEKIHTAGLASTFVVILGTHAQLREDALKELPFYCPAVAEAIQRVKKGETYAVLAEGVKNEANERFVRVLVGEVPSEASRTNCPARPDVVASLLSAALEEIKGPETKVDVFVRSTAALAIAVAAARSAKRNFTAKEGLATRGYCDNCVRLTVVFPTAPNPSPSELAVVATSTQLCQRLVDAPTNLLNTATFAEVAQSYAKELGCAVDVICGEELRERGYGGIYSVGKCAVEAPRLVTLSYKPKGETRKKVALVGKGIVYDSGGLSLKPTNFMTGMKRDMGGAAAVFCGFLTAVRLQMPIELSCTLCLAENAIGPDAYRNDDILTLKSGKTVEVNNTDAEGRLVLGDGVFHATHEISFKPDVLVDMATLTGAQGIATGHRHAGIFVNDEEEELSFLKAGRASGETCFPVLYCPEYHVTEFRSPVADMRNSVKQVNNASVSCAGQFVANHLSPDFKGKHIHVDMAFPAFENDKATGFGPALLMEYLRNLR

Row | SMILES | inhibition at 30 µM
1 | Nc1[nH]cnc1-c1nc(-c2ccccc2)cs1 [Compound 7] | 56%
2 | Cn1ccnc1C(NS(=O)(=O)c1ccc(C#N)cc1)c1cccc(F)c1 (centres unmarked) [Compound 8] | 49%

tested on: not listed separately; experiment: Cytotoxicity assay on human HepG2 cells (resazurin); type: cell-based; details: human, HepG2 cells, 72 h, two independent experiments; read-out: pCC50 (HepG2) (converted)

Row | SMILES | CC50 at 72 h
3 | Nc1[nH]cnc1-c1nc(-c2ccccc2)cs1 [Compound 7] | > 100 µM
4 | Cn1ccnc1C(NS(=O)(=O)c1ccc(C#N)cc1)c1cccc(F)c1 (centres unmarked) [Compound 8] | > 100 µM

tested on: HepG2 cells; experiment: as above; type: cell-based; details: individual replicates

Row | SMILES | Max Effect (HepG2) | pEC50 (HepG2)
5 | Nc1[nH]cnc1-c1nc(-c2ccccc2)cs1 [Compound 7] | 3 and 4 | < 4.0
6 | Cn1ccnc1C(NS(=O)(=O)c1ccc(C#N)cc1)c1cccc(F)c1 (centres unmarked) [Compound 8] | 6.44 and 10 | < 4.0

tested on: not listed separately; experiment: Cytotoxicity against infected Vero host cells in T. cruzi intracellular assay; type: cell-based, African green monkey; design: Max Effect (Vero): unit not given here; details: African green monkey, Vero cells infected with T. cruzi; infected Vero host cells, 96 h; read-out: pCC50 (Vero) +/- StDev (converted)
Description: (§2) Briefly, these cells were maintained at 37°C and 5% CO2 in MEM supplemented with 10% FCS, sub-culturing every 2–3 days at a ratio of 1:5 after 5 min treatment with Trypsin-EDTA (Gibco).
(§3) This assay was performed as described with the only modification that treatment was 96 h instead of 72 h. Briefly, Vero cells were infected overnight with tissue culture derived T. cruzi trypomastigotes in T225 tissue culture flasks (MOI 5). Any remaining free trypomastigotes were washed away with serum free MEM and the infected Vero cells were harvested by trypsinisation. Compounds (250 nL in DMSO) were dispensed using LabCyte ECHO (Beckman Coulter Life Sciences, USA) into each well of Corning black flat bottomed 384-well plates (Corning, USA). […] The infected Vero cells were then plated into the plates containing the compounds, at 4,000 cells per well in MEM media with 1% FCS. […] The plates were imaged on a Perkin Elmer Operetta high-content imaging system using a 20× objective. Images were analyzed using the Columbus system (Perkin Elmer). The algorithm first identified the Vero nuclei followed by demarcation of the cytoplasm and identification of intracellular amastigotes. This algorithm reported percent infected Vero cell and total number of Vero cells. All potency determinations were carried out in at least three independent replicates and are reported as pEC50 +/- standard deviation. pEC50 = -log(EC50[M]).

Row | SMILES | CC50 at 96 h
7 | Nc1[nH]cnc1-c1nc(-c2ccccc2)cs1 [Compound 7] | 10.2 µM
8 | Cn1ccnc1C(NS(=O)(=O)c1ccc(C#N)cc1)c1cccc(F)c1 (centres unmarked) [Compound 8] | > 50.1 µM

tested on: Vero cells; experiment: as above; type: cell-based, African green monkey; design: Max Effect (Vero): unit not given here; details: individual replicates
Description: as §2, §3

Row | SMILES | Max Effect (Vero) | pEC50 (Vero)
9 | Nc1[nH]cnc1-c1nc(-c2ccccc2)cs1 [Compound 7] | 78 and 73 | 5.1 and 4.8 and 5.2
10 | Cn1ccnc1C(NS(=O)(=O)c1ccc(C#N)cc1)c1cccc(F)c1 (centres unmarked) [Compound 8] | 18 and 29 and 34 and 32 | < 4.3

target: T1, LAPTc (acidic M17 leucyl-aminopeptidase from T. cruzi); experiment: Dose-response studies for LAPTc inhibition by RapidFire-MS; type: biochemical; details: Initial hit confirmation, single replicate
Description: as §1
To generate half-maximum inhibitory concentration (IC50) data for LAPTc, 10-point dose-response curves with 100 μM as highest concentration and 1:2 dilution in DMSO (0.195–100 μM range) were prepared in 384 well plates. All other experimental conditions were as described above. All IC50 curve fitting was performed by four-parameter logistic dose-response curve fit using ActivityBase XE (IDBS). At least three replicates were generated for each hit compound.

Row | SMILES | Hill Slope
11 | Nc1[nH]cnc1-c1nc(-c2ccccc2)cs1 [Compound 7] | 1.2
12 | Cn1ccnc1C(NS(=O)(=O)c1ccc(C#N)cc1)c1cccc(F)c1 (centres unmarked) [Compound 8] | 1.0

same assay, conditions: Initial hit confirmation, single replicate; read-out: Maximum Effect

Row | SMILES | Emax
13 | Nc1[nH]cnc1-c1nc(-c2ccccc2)cs1 [Compound 7] | 90%
14 | Cn1ccnc1C(NS(=O)(=O)c1ccc(C#N)cc1)c1cccc(F)c1 (centres unmarked) [Compound 8] | 89%

same assay, conditions: Initial hit confirmation, single replicate; read-out: pIC50 (converted)

Row | SMILES | IC50
15 | Nc1[nH]cnc1-c1nc(-c2ccccc2)cs1 [Compound 7] | 2 µM
16 | Cn1ccnc1C(NS(=O)(=O)c1ccc(C#N)cc1)c1cccc(F)c1 (centres unmarked) [Compound 8] | 12.6 µM

same assay, conditions: Replicate data generation, individual replicates

Row | SMILES | Hill Slope | Maximum Effect
17 | Nc1[nH]cnc1-c1nc(-c2ccccc2)cs1 [Compound 7] | 1.7 and 1.5 | 50% and 61%
18 | Cn1ccnc1C(NS(=O)(=O)c1ccc(C#N)cc1)c1cccc(F)c1 (centres unmarked) [Compound 8] | 1.5 and 1.6 and 1.3 | 82%

same assay, conditions: Replicate data generation, individual replicates; read-out: Maximum Effect

Row | SMILES | Emax
19 | Nc1[nH]cnc1-c1nc(-c2ccccc2)cs1 [Compound 7] | 53%
20 | Cn1ccnc1C(NS(=O)(=O)c1ccc(C#N)cc1)c1cccc(F)c1 (centres unmarked) [Compound 8] | 79%

same assay, conditions: Replicate data generation, individual replicates; read-out: pIC50 (converted)

Row | SMILES | IC50
21 | Cn1ccnc1C(NS(=O)(=O)c1ccc(C#N)cc1)c1cccc(F)c1 (centres unmarked) [Compound 8] | 12.6 µM

same assay, conditions: average of four independent replicates; read-out: pIC50 +/- StDev (LAPTc) (converted)

Row | SMILES | IC50
22 | Nc1[nH]cnc1-c1nc(-c2ccccc2)cs1 [Compound 7] | 3.89 µM

same assay, conditions: whether primary screen hit confirmed in potency experiment

Row | SMILES | Hit Confirmation
23 | Nc1[nH]cnc1-c1nc(-c2ccccc2)cs1 [Compound 7] | confirmed
24 | Cn1ccnc1C(NS(=O)(=O)c1ccc(C#N)cc1)c1cccc(F)c1 (centres unmarked) [Compound 8] | confirmed

tested on: intracellular T. cruzi amastigotes; experiment: T. cruzi intracellular assay (high-content imaging, infected Vero cells); type: cell-based, Trypanosoma cruzi; design: Max Effect (T. cruzi): unit not given here; details: Trypanosoma cruzi, Vero, 96 h, four independent experiments; read-out: pEC50 (T. cruzi) +/- StDev (converted)
Description: T. cruzi parasite, TcI strain Silvio X10/7 subclone A1 [34] was maintained in culture as previously described. Parasites were maintained as amastigotes by passaging on a weekly basis in Vero cells. Culture maintenance infections were carried out at an MOI (multiplicity of infection) of 1.5.
This assay was performed as described with the only modification that treatment was 96 h instead of 72 h. Briefly, Vero cells were infected overnight with tissue culture derived T. cruzi trypomastigotes in T225 tissue culture flasks (MOI 5). Any remaining free trypomastigotes were washed away with serum free MEM and the infected Vero cells were harvested by trypsinisation. Compounds (250 nL in DMSO) were dispensed using LabCyte ECHO (Beckman Coulter Life Sciences, USA) into each well of Corning black flat bottomed 384-well plates (Corning, USA). […] The infected Vero cells were then plated into the plates containing the compounds, at 4,000 cells per well in MEM media with 1% FCS. After 96 h incubation at 37°C in presence of 5% CO2, the plates were fixed with 4% formaldehyde for 20 min at room temperature and stained with 5 μg/mL Hoechst 33342. The plates were imaged on a Perkin Elmer Operetta high-content imaging system using a 20× objective. Images were analyzed using the Columbus system (Perkin Elmer). The algorithm first identified the Vero nuclei followed by demarcation of the cytoplasm and identification of intracellular amastigotes. This algorithm reported percent infected Vero cell and total number of Vero cells. All potency determinations were carried out in at least three independent replicates and are reported as pEC50 +/- standard deviation. pEC50 = -log(EC50[M]).

Row | SMILES | EC50
25 | Nc1[nH]cnc1-c1nc(-c2ccccc2)cs1 [Compound 7] | 38.9 µM
26 | Cn1ccnc1C(NS(=O)(=O)c1ccc(C#N)cc1)c1cccc(F)c1 (centres unmarked) [Compound 8] | > 50.1 µM

same assay, conditions: Trypanosoma cruzi, Vero, individual replicates; read-out: Max Effect (T. cruzi)

Row | SMILES | Emax
27 | Cn1ccnc1C(NS(=O)(=O)c1ccc(C#N)cc1)c1cccc(F)c1 (centres unmarked) [Compound 8] | 29%

same assay, conditions: Trypanosoma cruzi, Vero, individual replicates; read-out: pEC50 (T. cruzi) (converted)

Row | SMILES | EC50
28 | Nc1[nH]cnc1-c1nc(-c2ccccc2)cs1 [Compound 7] | 31.6 µM
29 | Cn1ccnc1C(NS(=O)(=O)c1ccc(C#N)cc1)c1cccc(F)c1 (centres unmarked) [Compound 8] | > 50.1 µM

same assay, conditions: individual replicates

Row | SMILES | Max Effect (T. cruzi) | pEC50 (T. cruzi)
30 | Nc1[nH]cnc1-c1nc(-c2ccccc2)cs1 [Compound 7] | 59 and 37 and 30 | < 4.3 and 4.3
31 | Cn1ccnc1C(NS(=O)(=O)c1ccc(C#N)cc1)c1cccc(F)c1 (centres unmarked) [Compound 8] | 31 and 26 and 25 | –

Source: PMC10901353, “Identification of a potent and selective LAPTc inhibitor by RapidFire-Mass Spectrometry, with antichagasic activity” (PLOS Neglected Tropical Diseases, 2024)
